From patent publication US20070203158A1, “Fungicidal Mixtures” (BASF AKTIENGESELLSCHAFT, priority 2004, published 2007) come the findings set out here.

This assay concerns Plasmopara viticola. The assay can be described thus: Activity against peronospora of grapevines caused by Plasmopara viticola (protective spray on potted vines). The assay is classed as in vivo. The following applies: individual active compound, untreated control 89% infection. The procedure:
The active compounds, separately or jointly, were prepared as a stock solution comprising 0.25% by weight of active compound in acetone or DMSO. 1% by weight of the emulsifier Uniperol® EL (wetting agent having emulsifying and dispersant action based on ethoxylated alkylphenols) was added to this solution, and the mixture was diluted with water to the desired concentration.
Leaves of potted vines were sprayed to runoff point with an aqueous suspension having the concentration of active compound stated below. The next day, the undersides of the leaves were inoculated with an aqueous sporangia suspension of Plasmopara viticola. The grapevines were then initially placed in a water-vapor-saturated chamber at 24° C. for 48 hours and then in a greenhouse at 20-30° C. for 5 days. After this period of time, the plants were again placed in a humid chamber for 16 hours to promote sporangiophore eruption. The extent of the development of the disease on the undersides of the leaves was then determined visually.
The visually determined percentages of infected leaf areas were converted into efficacies in % of the untreated control:
The efficacy (E) is calculated as follows using Abbot's formula: E=(1−α/β)·100 • α corresponds to the fungicidal infection of the treated plants in % and • β corresponds to the fungicidal infection of the untreated (control) plants in %
An efficacy of 0 means that the infection level of the treated plants corresponds to that of the untreated control plants; an efficacy of 100 means that the treated plants are not infected.
The expected efficacies of mixtures of active compounds were determined using Colby's formula (Colby, S. R. “Calculating synergistic and antagonistic responses of herbicide combinations”, Weeds, 15, 20-22, 1967) and compared with the observed efficacies.
Colby's formula: E=x+y−x·y/100 • E expected efficacy, expressed in % of the untreated control, when using the mixture of the active compounds A and B at the concentrations a and b • x efficacy, expressed in % of the untreated control, when using the active compound A at the concentration a
y efficacy, expressed in % of the untreated control, when using the active compound B at the concentration b

Take `CC1CCN(c2c(-c3c(F)cc(F)cc3F)c(Cl)nc3ncnn23)CC1` [compound I, 5-chloro-7-(4-methylpiperidin-1-yl)-6-(2,4,6-trifluorophenyl)-[1,2,4]tri-azolo[1,5-a]pyrimidine]: the “Efficacy in % of the untreated control” value is 0% (1 ppm in the spray liquor) and 33% (4 ppm in the spray liquor).
Taken in the same sequence, the figures for `CO/C=C(/C(=O)OC)c1ccccc1COc1cccc(C(F)(F)F)n1` [compound II, methyl 3-methoxy-2-[2-(6-trifluoromethylpyridin-2-yloxymethyl)phenyl]acrylate] were 33% and 66%.
